Experimental data taken from US20130130306A1, “ZN (II) BASED COLORIMETRIC SENSOR AND PROCESS FOR THE PREPARATION THEREOF” (COUNCIL OF SCIENTIFIC & INDUSTRIAL RESEARCH, priority 2010, published 2013).

Key:
[1] = system: Bacillus megaterium (Gram +ve); experiment: Staining of Gram +ve bacteria, light microscopy; type: cell-based; set-up: change in color of bacterial stains: dose or concentration left out as unconfirmed
Method: The isolates of Saccharomyces sp. were cultured in GYE (glucose yeast extract agar) media, Bacillus sp. in Nutrient broth, and Pseudomonas sp. in King's B medium for 24 hour at 37° C. […] of this was taken and was allowed to incubate at 30 to 40° C. along with 100 μl of L.Zn (Scheme 1, Formula 1A) (1.16×10^−4 M) solution. The samples were fixed overnight at room temperature 25-30° C. with 2% (v/v) glutaraldehyde in 0.1 M phosphate buffer at pH 7.5. The samples were then washed with 0.1 M phosphate buffer (pH 7.5) at room temperature 25-30° C. for 1 hour. Post-fixation was carried out in 2% (w/v) osmium tetroxide (OsO4) in the same buffer and was washed once with 0.1 M phosphate buffer for 20 minutes. […]
We also explored the possibility of using L.Zn/L.Zn.α-CD as the staining agent for prokaryotes (Gram +ve and Gram −ve bacterial cells). […] Changes on the cell surfaces on binding of the dye, L.Zn (Scheme 1, Formula 1A) were also evident from the SEM images recorded for Gram −ve and Gram +ve bacteria, in absence and presence of staining agent (FIGS. 11C to 11F). […] The growth profile of Eukaryotic Yeast cells (Saccharomyces cerevisiae) and Prokaryotic bacterial cells ([…]) in an aqueous culture medium in absence and presence of L.Zn (Scheme 1, Formula 1A) are shown in FIG. 12. […]

[2] = Spectrophotometric titration, inclusion complex formation with α-CD; type: binding; conditions: α-CD 0-2.3 mM
Method: Preliminary spectral studies reveal that absorption maxima for L.Zn (Scheme 1, Formula 1A) (463 nm) tend to shift to shorter wavelength (458 nm) on addition of aqueous solution of α-CD (0-2.3 mM) in excess to the […] solution of L.Zn (Scheme 1, Formula 1A). Formation of host-guest type inclusion complex on addition of trans-1,2-bis-(4-pyridyl)ethylene, 4,4′-azopyridine (AZP) and some related bipyridine/biphenyl molecules in α-CD is reported by several researcher (Shukla, A. D.; Bajaj, H. C.; Das, A. Angew. Chem. Int. Ed. 2001, 40, 446.; Shukla, A. D.; Bajaj, H. C., Das, A. Nat. Acad. Science, 2002, 114, 431.; Beer, A. J.; Macartney, D. H. Inorg. Chem. 2000, 39, 1410.; Macartney, D. H.; Waddling, C. A.; Inorg. Chem. 1994, 33, 5912.; Philip, D.; Stoddart, J. F. Angew. Chem. Int. Ed. 1996, 35, 1154). It is also reported that inclusion in these compounds in the CD cavity influences the HOMO-LUMO energy gap and there by the absorption spectral bands-though the perturbation of the energy levels are not reported to be an appreciable one. Thus, in this present study, the observed shift of 5 nm could be attributed to the inclusion phenomena and the formation of a pseudo-rotaxane complex.
General formula that was used for calculating the binding constants from UV-vis titrations is given below:
Binding Constant,K=[L.Zn.CD]/{[L.Zn]free[CD]free} (5) […]

SMILES: CN(C)c1ccc(N=Nc2ccc(S(=O)(=O)N3CCCNCCNCCCNCC3)cc2)cc1.O=[N+]([O-])[O-].O=[N+]([O-])[O-].[Zn+2] [L.Zn]
- growth of colonies streaked on nutrient agar plates after incubation with sensor ([1]; Bacillus species in Nutrient broth, sensor 1.0×10^−4 M, 25° C., 10 mins): colonies of the test microbes grew
- change in color of bacterial stains ([1]; light microscopy): distinct change in color
- association constant of inclusion complex with α-CD ([2]; aqueous solution): 255 (+15) M^−1
- association constant of inclusion complex with α-CD ([2]; aqueous solution (as printed in b187)): 255 (±15) M^1
